Test results as given in US20040152739A1, “Acyclic pyrazole compounds for the inhibition of mitogen activated protein kinase-activated protein kinase-2” (priority 2002, published 2004).
Counter-ions that a name gives are not always drawn. Like-named read-outs stand apart in the source and are kept apart here.

Target: MK-2 (Homo sapiens, UniProt P49137)
Test: Determination of MK-2 IC50 (anion exchange resin capture assay, HSP-peptide phosphorylation)
Type: biochemical
Protocol: The phosphorylation of HSP-peptide ([sequence]) by MAPKAPK2 was measured using an anion exchange resin capture assay method. […] The reaction was terminated and [γ^33P]ATP was removed from solution by the addition of 150 μl of AG 1×8 ion exchange resin in 900 mM sodium formate pH 3.0. A 50 μl aliquot of head volume was removed from the quenched reaction mixture and added to a 96-well plate, 150 μl of Microscint-40 (Packard) was added and the amount of phosphorylated-peptide was determined. Allow the Microscint to sit in the plates for 60 minutes prior to counting.
Compounds are evaluated as potential inhibitors of the MK2 kinase by measuring their effects on MK2 phosphorylation of the peptide substrate. Compounds may be screened initially at two concentrations prior to determination of IC50 values. Screening results are expressed as percent inhibition at the concentrations of compound tested. For IC50 value determinations, compounds are tested at six concentrations in ten-fold serial dilutions with each concentration tested in triplicate. Results are expressed as IC50 values in micromolar. The assay is performed at a final concentration of 2% DMSO.
Compounds are evaluated as potential inhibitors of the MK-2 kinase by measuring their effects on MK-2 phosphorylation of the peptide substrate. Compounds may be screened initially at two concentrations prior to determination of IC50 values. Screening results are expressed as percent inhibition at the concentrations of compound tested. For IC50 value determinations, compounds are tested at six concentrations in ten-fold serial dilutions with each concentration tested in triplicate. Results are expressed as IC50 values in micromolar. The assay is performed at a final concentration of 2% DMSO.

MK-2, sequence (P49137 whole entry, species assumed): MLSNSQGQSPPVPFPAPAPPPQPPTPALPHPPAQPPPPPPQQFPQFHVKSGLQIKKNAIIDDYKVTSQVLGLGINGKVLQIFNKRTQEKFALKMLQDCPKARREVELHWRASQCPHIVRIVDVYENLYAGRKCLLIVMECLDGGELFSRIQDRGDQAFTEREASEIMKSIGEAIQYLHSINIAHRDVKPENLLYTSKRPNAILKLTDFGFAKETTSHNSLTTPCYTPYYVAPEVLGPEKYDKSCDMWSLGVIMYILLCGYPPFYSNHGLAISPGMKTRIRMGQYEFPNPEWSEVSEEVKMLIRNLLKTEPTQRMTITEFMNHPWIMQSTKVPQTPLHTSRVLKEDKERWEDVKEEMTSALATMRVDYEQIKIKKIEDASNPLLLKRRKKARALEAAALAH

CCOC(=O)c1cc(-c2ccnc(-c3ccc(O[Si](C)(C)C(C)(C)C)cc3)c2)nn1CCN [Example 136, ethyl 1-(2-aminoethyl)-3-[2-(4-{[tert-butyl(dimethyl)silyl]oxy}phenyl)pyridin-4-yl]-1H-pyrazole-5-carboxylate dihydrochloride]
IC50 (MK-2 Avg. IC50): 28.3 µM

CCOC(=O)c1cc(-c2ccnc(-c3cccc([N+](=O)[O-])c3)c2)nn1CCCN [Example 137, ethyl 1-(3-aminopropyl)-3-[2-(3-nitrophenyl)pyridin-4-yl]-1H-pyrazole-5-carboxylate dihydrochloride]
IC50 (read-out: MK-2 Avg. IC50): 31.6 µM

CN(C)c1cc(-c2cc3n(n2)CCNC3=O)ccn1 [Example 138, 2-[2-(dimethylamino)pyridin-4-yl]-6,7-dihydropyrazolo[1,5-a]pyrazin-4(5H)-one trifluoroacetate]
IC50 (read-out: MK-2 Avg. IC50): 37.2 µM

CCOC(=O)c1cc(-c2ccnc(-c3cnc4ccccc4c3)c2)nn1CCCN [Example 139, ethyl 1-(3-aminopropyl)-3-(2-quinolin-3-ylpyridin-4-yl)-1H-pyrazole-5-carboxylate dihydrochloride]
IC50 (read-out: MK-2 Avg. IC50): 38.6 µM

O=C1NCCn2nc(-c3ccnc(Cl)c3)cc21 [Example 140, 2-(2-chloropyridin-4-yl)-6,7-dihydropyrazolo[1,5-a]pyrazin-4(5H)-one]
IC50 (read-out: MK-2 Avg. IC50): 44.8 µM

CCOC(=O)c1cc(-c2ccnc(-c3ccc(O)cc3)c2)nn1CCCN [Example 141, ethyl 1-(3-aminopropyl)-3-[2-(4-hydroxyphenyl)pyridin-4-yl]-1H-pyrazole-5-carboxylate hydrochloride]
IC50 (read-out: MK-2 Avg. IC50): 47.5 µM

Cc1cnn(-c2cc(-c3cc4n(n3)CCCNC4=O)ccn2)c1 [Example 142, 2-[2-(4-methyl-1H-pyrazol-1-yl)pyridin-4-yl]-5,6,7,8-tetrahydro-4H-pyrazolo[1,5-a][1,4]diazepin-4-one trifluoroacetate]
IC50 (read-out: MK-2 Avg. IC50): 53.4 µM

CCOC(=O)c1cc(-c2ccncc2)nn1CCCN [Example 143, ethyl 1-(3-aminopropyl)-3-pyridin-4-yl-1H-pyrazole-5-carboxylate hydrochloride]
IC50 (read-out: MK-2 Avg. IC50): 60.8 µM

O=C1NCCn2nc(-c3ccnc(-c4ccc(Cl)c(Cl)c4)c3)cc21 [Example 144, 2-[2-(3,4-dichlorophenyl)pyridin-4-yl]-6,7-dihydropyrazolo[1,5-a]pyrazin-4(5H)-one trifluoroacetate]
IC50 (read-out: MK-2 Avg. IC50): 65.5 µM

O=C1NCCCn2nc(-c3ccnc(Cl)c3)cc21 [Example 145, 2-(2-chloropyridin-4-yl)-5,6,7,8-tetrahydro-4H-pyrazolo[1,5-a][1,4]diazepin-4-one]
IC50 (read-out: MK-2 Avg. IC50): 80.4 µM

O=C1NCCn2nc(-c3ccnc(-c4ccc(F)c(F)c4)c3)cc21 [Example 146, 2-[2-(3,4-difluorophenyl)pyridin-4-yl]-6,7-dihydropyrazolo[1,5-a]pyrazin-4(5H)-one trifluoroacetate]
IC50 (read-out: MK-2 Avg. IC50): 88.9 µM

O=C1NCCCn2nc(-c3ccc(O)cc3)cc21 [Example 147, 2-(4-hydroxyphenyl)-5,6,7,8-tetrahydro-4H-pyrazolo[1,5-a][1,4]diazepin-4-one]
IC50 (read-out: MK-2 Avg. IC50): 118 µM

O=C1NCCCn2nc(-c3ccnc(-c4ccc(OC(F)(F)F)cc4)c3)cc21 [Example 148, 2-{2-[4-(trifluoromethoxy)phenyl]pyridin-4-yl}-5,6,7,8-tetrahydro-4H-pyrazolo[1,5-a][1,4]diazepin-4-one]
IC50 (read-out: MK-2 Avg. IC50): 124 µM

O=C1NCCn2nc(-c3ccnc(-c4ccc(OC(F)(F)F)cc4)c3)cc21 [Example 149, 2-{2-[4-(trifluoromethoxy)phenyl]pyridin-4-yl}-6,7-dihydropyrazolo[1,5-a]pyrazin-4(5H)-one trifluoroacetate]
IC50 (read-out: MK-2 Avg. IC50): 131 µM

NCCCn1nc(-c2cccc(O)c2)cc1C(=O)O [Example 150, 1-(3-aminopropyl)-3-(3-hydroxyphenyl)-1H-pyrazole-5-carboxylic acid trifluoroacetate]
IC50 (read-out: MK-2 Avg. IC50): 153 µM

COc1ccc(-c2cc(C(=O)O)n(CCCNC(=O)OC(C)(C)C)n2)cc1 [Example 151, 1-{3-[(tert-butoxycarbonyl)amino]propyl}-3-(4-methoxyphenyl)-1H-pyrazole-5-carboxylic acid]
IC50 (read-out: MK-2 Avg. IC50): 155 µM
